Here are results for eleven compounds from patent US20150126369A1, “SYNERGISTIC HERBICIDAL COMPOSITION” (ROTAM AGROCHEM INTERNATIONAL COMPANY LIMITED, priority 2013, published 2015).

Holding throughout (format): in vivo
For one assay, the system named is Chenopodium. The assay is described as follows: Field test, postemergence herbicidal activity on Chenopodium in sulfonylurea-resistant rape. From the text:
(§1) A synergistic effect exists when the effect of the composition exceeds the sum of the effects of the compounds applied separately. The expected effect for a specific combination of two active compounds can be calculated using a so-called “Colby formula” (see S. R. Colby, “Calculating Synergistic and Antagonistic Responses of Herbicide Combinations”, Weeds 1967,15, 20-22) as follows: if
(§2) If the actually observed activity (O) is greater than the expected activity (E), then the composition is superadditive, i.e., synergism is present.
(§3) Sulfonylurea herbicides-resistant non-genetically modified rape crops were planted with typical weeds under natural outdoors conditions. When the rape plants grew, the weed populations naturally occurred. The weeds were treated during postemergence at 2-4 leaf stage. To reflect the synergistic effect, they were treated with a lower dosage than the common dosage.

A further assay concerns Beckmannia. The assay is described as follows: Field test, postemergence herbicidal activity on Beckmannia in sulfonylurea-resistant rape.
Text: as §1, §2, §3

In a further assay the test system is Stellaria. The assay is described as follows: Field test, postemergence herbicidal activity on Stellaria in sulfonylurea-resistant rape. Conditions: 10 gram ai/ha, four weeks after the treatment; for pest or weed control at 10 g/ha: Stellaria, post-emergence, 672 h, read-out: Injury of Stellaria % Experimental value.
Text: (§4) A synergistic effect exists when the effect of the composition exceeds the sum of the effects of the compounds applied separately.
as §2
(§5) Sulfonylurea herbicides-resistant non-genetically modified rape crops were planted with typical weeds under natural outdoors conditions. When the rape plants grew, the weed populations naturally occurred. The weeds were treated during postemergence at 2-4 leaf stage.

A further assay relates to Galium. Put plainly: Field test, postemergence herbicidal activity on Galium in sulfonylurea-resistant rape. To be noted: four weeks after the treatment; for pest or weed control at 0.1 g/ha: Galium, post-emergence, 672 h, read-out: Injury of Galium % Experimental value.
Text: as §4, §2, §5

The test system of a further assay is Alopecurus. The assay is described as follows: Field test, postemergence herbicidal activity on Alopecurus in sulfonylurea-resistant rape. Conditions: four weeks after the treatment; for pest or weed control at 10 g/ha: Alopecurus, post-emergence, 672 h, read-out: Injury of Alopecurus % Experimental value.
Text: as §4, §2, §5

For a further assay, the system named is Datura. The assay is described as follows: Field test, postemergence herbicidal activity against Datura in sulfonylurea-resistant rape. To be noted: four weeks after the treatment; for pest or weed control at 5 g/ha: Datura, post-emergence, 672 h, read-out: Injury of Datura % Experimental value.
Text: as §4, §2, §5

The test system of another assay is Setaria. The assay is described as follows: Field test, postemergence herbicidal activity on Setaria in sulfonylurea-resistant rape. To be noted: four weeks after the treatment; for pest or weed control at 1 g/ha: Setaria, post-emergence, 672 h, read-out: Injury of Setaria % Experimental value.
Text: as §4, §2, §5

Setting [1] is: Chenopodium, post-emergence, 672 h, sulfonylurea alone, 10 gram ai/ha, four weeks after the treatment, read-out: Injury of Chenopodium % Experimental value.
Where [2] appears, read: post-emergence, 672 h, sulfonylurea alone, 10 gram ai/ha, four weeks after the treatment, read-out: Injury of Beckmannia % Experimental value.
The mark [3] stands for this setting: sulfonylurea alone, 0.1 gram ai/ha.
[4] abbreviates: sulfonylurea alone, 10 gram ai/ha.
[5] abbreviates: sulfonylurea alone, 5 gram ai/ha.
Setting [6] is: sulfonylurea alone, 1 gram ai/ha.
[7] abbreviates: sulfonylurea alone, 10 gram ai/ha, four weeks after the treatment.

For the compound `CCC/C(=N\OCC)C1=C(O)CC(CC(C)SCC)CC1=O` (racemic) [sethoxydim, (±)-2-[1-(ethoxyimino)butyl]-5-[2-(ethylthio)propyl]-3-hydroxy-2-cyclo hexen-1-one], the pest or weed control at 0.1 g/ha with Chenopodium (Chenopodium, post-emergence, 672 h, read-out: Injury of Chenopodium % Experimental value) worked out at 0%. Moreover, the pest or weed control at 0.2 g/ha with Beckmannia (post-emergence, 672 h, read-out: Injury of Beckmannia % Experimental value) is 0%.

Turning to `COc1cc(OC)nc(NC(=O)NS(=O)(=O)N(C)S(C)(=O)=O)n1` [amidosulfuron, 1-(4,6-dimethoxypyrimidin-2-yl)-3-mesyl(methyl)sulfamoylurea], the pest or weed control at 10 g/ha in the assay with Chenopodium (setting [1]) is 35.8%; with Beckmannia (setting [2]), 0%; with Stellaria (sulfonylurea alone), 35%; with Alopecurus (setting [4]), 0%. Moreover, in the assay on Galium (setting [3]), the pest or weed control at 0.1 g/ha was 5%. Moreover, the pest or weed control at 5 g/ha with Datura (setting [5]) turned out to be 27%. The pest or weed control at 1 g/ha with Setaria (setting [6]) stood at 0%.

On to `COC(=O)c1ccccc1CS(=O)(=O)NC(=O)Nc1nc(OC)cc(OC)n1` [bensulfuron-methyl, methyl 2-[((4,6-dimethoxypyrimidin-2-yl)aminocarbonylamino]sulfonylmethyl)benzoate], for which the pest or weed control at 10 g/ha in the assay on Chenopodium (setting [1]) was 12.2%; in the assay with Beckmannia (setting [2]) it was 0%; in the assay on Stellaria (sulfonylurea alone) it was 64%; in the assay with Alopecurus (setting [4]), 0%. Also, the pest or weed control at 0.1 g/ha in the assay on Galium (setting [3]) was found to be 16%. In the assay on Datura (setting [5]), the pest or weed control at 5 g/ha came to 32%. In the assay on Setaria (setting [6]), the pest or weed control at 1 g/ha stood at 0%.

With `COc1nc(C)nc(NC(=O)NS(=O)(=O)c2ccccc2Cl)n1` [chlorsulfuron], the pest or weed control at 10 g/ha was found to be 53.6% with Chenopodium (setting [1]), 36.2% in the assay on Beckmannia (setting [2]), 55% with Stellaria (sulfonylurea alone) and 54% in the assay on Alopecurus (setting [4]). Further, the pest or weed control at 0.1 g/ha with Galium (setting [3]) came out at 10%. The pest or weed control at 5 g/ha in the assay with Datura (setting [5]) was 34%. In addition, in the assay on Setaria (setting [6]), the pest or weed control at 1 g/ha came to 0%.

Turning to `COc1cc(OC)nc(NC(=O)NS(=O)(=O)Nc2ccccc2C(=O)C2CC2)n1` [cyclosulfamuron], the pest or weed control at 10 g/ha with Chenopodium (setting [1]) turned out to be 4.1%; with Beckmannia (setting [2]), 0%; with Stellaria (sulfonylurea alone), 48%; in the assay on Alopecurus (setting [4]), 0%. In addition, the pest or weed control at 0.1 g/ha in the assay on Galium (setting [3]) stood at 9%. Further, in the assay with Datura (setting [5]), the pest or weed control at 5 g/ha is 26%. In addition, in the assay with Setaria (setting [6]), the pest or weed control at 1 g/ha worked out at 0%.

With `COC(=O)c1ccccc1S(=O)(=O)NC(=O)Nc1nc(C)nc(OC)n1` [metsulfuron-methyl, methyl 2-[(4-methoxy-6-methyl-1,3,5-triazin-2-yl)ureidosulfonyl]benzoate], the pest or weed control at 10 g/ha in the assay on Chenopodium (setting [1]) worked out at 88.4%; in the assay on Beckmannia (setting [2]), 24.8%; with Stellaria (sulfonylurea alone) it was 58%; with Alopecurus (setting [4]), 82%. In addition, the pest or weed control at 0.1 g/ha in the assay on Galium (setting [3]) amounted to 11%. Further, the pest or weed control at 5 g/ha in the assay on Datura (setting [5]) was 27%. For the same compound, in the assay with Setaria (setting [6]), the pest or weed control at 1 g/ha is 0%.

For the compound `Cc1ccnc(NC(=O)NS(=O)(=O)c2ccccc2[N+](=O)[O-])n1` [monosulfuron], the “Injury of Chenopodium % Experimental value” in the assay with Chenopodium (setting [7]) was found to be 23.5%. The “Injury of Beckmannia % Experimental value” in the assay on Beckmannia (setting [7]) is given as 7%. Further, the “Injury of Stellaria % Experimental value” in the assay on Stellaria (sulfonylurea alone) turned out to be 34%. In the assay on Galium (setting [3]), the “Injury of Galium % Experimental value” is listed as 7%. In addition, the “Injury of Alopecurus % Experimental value” in the assay with Alopecurus (setting [4]) stood at 5%. The “Injury of Datura % Experimental value” in the assay with Datura (setting [5]) is 24%. Besides, the “Injury of Setaria % Experimental value” in the assay with Setaria (setting [6]) was determined as 0%.

For the compound `COc1cc(OC)nc(NC(=O)NS(=O)(=O)c2ncccc2C(=O)N(C)C)n1` [nicosulfuron, 2-(4,6-dimethoxypyrimidin-2-ylcarbamoylsulfamoyl)-N,N-dimethylnicotinamide], the pest or weed control at 10 g/ha with Chenopodium (setting [1]) came out at 4%; with Beckmannia (setting [2]) it was 50.3%; in the assay on Stellaria (sulfonylurea alone), 60%; in the assay with Alopecurus (setting [4]), 5%. In the assay with Galium (setting [3]), the pest or weed control at 0.1 g/ha came to 1%. The pest or weed control at 5 g/ha in the assay on Datura (setting [5]) stood at 11%. Moreover, the pest or weed control at 1 g/ha in the assay with Setaria (setting [6]) amounted to 2%.

As for `COC(=O)c1sccc1S(=O)(=O)NC(=O)Nc1nc(C)nc(OC)n1` [thifensulfuron-methyl, 3-(4-methoxy-6-methyl-1,3,5-triazin-2-yl)-1-(2-methoxyformylthiophen-3-yl)-sulfonylurea], the pest or weed control at 10 g/ha in the assay with Chenopodium (setting [1]) was 8.1%; with Beckmannia (setting [2]), 0%; with Stellaria (sulfonylurea alone), 57%; with Alopecurus (setting [4]), 0%. Also, the pest or weed control at 0.1 g/ha in the assay on Galium (setting [3]) came out at 8%. For the same compound, in the assay with Datura (setting [5]), the pest or weed control at 5 g/ha is 22%. Besides, in the assay with Setaria (setting [6]), the pest or weed control at 1 g/ha is 0%.

As for `COc1nc(C)nc(NC(=O)NS(=O)(=O)c2ccccc2OCCCl)n1` [triasulfuron, 1-[2-(2-chloroethoxyl)phenylsulfonyl]-3-(4-methoxy-6-methyl-1,3,5-triazin-2-yl)urea], the pest or weed control at 10 g/ha in the assay with Chenopodium (setting [1]) came out at 22.5%; in the assay with Beckmannia (setting [2]), 0%; in the assay with Stellaria (sulfonylurea alone) it was 40%; in the assay on Alopecurus (setting [4]), 0%. Moreover, in the assay with Galium (setting [3]), the pest or weed control at 0.1 g/ha came out at 13%. Further, the pest or weed control at 5 g/ha in the assay on Datura (setting [5]) was 28%. Also, the pest or weed control at 1 g/ha with Setaria (setting [6]) was 0%.

In the case of “(±)-2-[(E)-3-chloroallyloxyimino]propyl-5-[2-(ethylthio) propyl]-3-hydroxycyclohexen-2-one [clethodim]”, in the assay with Stellaria (clethodim alone), the “Injury of Stellaria % Experimental value” stood at 0%. For the same compound, the “Injury of Galium % Experimental value” with Galium (clethodim alone, 10 gram ai/ha) worked out at 0%. In the assay on Alopecurus (clethodim alone, 1 gram ai/ha), the “Injury of Alopecurus % Experimental value” came out at 5%. The “Injury of Datura % Experimental value” in the assay with Datura (clethodim alone, 50 gram ai/ha) amounted to 0%. Besides, the “Injury of Setaria % Experimental value” in the assay with Setaria (clethodim alone, 50 gram ai/ha) was 57.4%.
